In experiment [1] the target is T1, BTK (Homo sapiens, UniProt Q06187). The experiment can be described thus: BTK degradation, DC50 and Dmax of Table 1 (cell line not given). The format is cell-based. Further details: endogenous in cells. As to conditions: for DC50: concentration giving 50% reduction of BTK expression level.
A further experiment concerns JeKo-1 cells. The experiment can be described thus: Antiproliferative effect, MTS cell viability assay, JeKo-1 cells. Type of experiment: cell-based. Particulars: JeKo-1 mantle cell lymphoma cells, read-out: IC50 (anti-proliferation) JeKO-1 cells. The gist of the method: (§1)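 Cells were exposed to compound at 0, 0.001, 0.01, 0.1, 1 and 10 μM for 72 h. Viability was then measured by MTS assay, reading formazan produced by metabolically active cells as absorbance at 490 nm.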
In general terms: Tetrazolium dyes change colour on reduction, which living cells bring about.

The target of experiment [2] is T1, BTK. The experiment can be described thus: Degradation of BTK protein in JeKo-1 cells (Western blot; DC50, Dmax). As to conditions: JeKo-1 mantle cell lymphoma cells, various concentrations, 24 hours. In general terms: Immunoblotting shows a protein as a band on a membrane.
Description: (§2) Namalwa, JeKo-1, or Mino cells were plated in 24-well plates at a density of 10^5 cells/well. Media containing various drug concentrations were added on the day following plating (day 0) and allowed to incubate for 24 hours for Western blot. Media with the tested compound was changed every other day. […] Media were removed and dishes were washed with 1×DPBS. Lysates were made by adding 150 μL of complete lysis solution and scraping cells into a 1.5 mL microcentrifuge tube. Lysates were placed on a rotisserie at 4° C. for 30 min and then spun at 4° C. at 12000 rcf for 10 min. Supernatants were assayed for protein content, snap-frozen, and stored a −80° C. if not run immediately. Then 50 μg of protein was subjected to Western blot protocol. […] They were then imaged on a LICOR infrared scanner.
The subject of a further experiment is Mino cells. The experiment can be described thus: Antiproliferative effect, MTS cell viability assay, Mino cells. The format is cell-based. As to conditions: Mino mantle cell lymphoma cells, read-out: IC50 (anti-proliferation) Mino cells. The gist of the method: as §1
In experiment [3] the target is T1, BTK. The experiment can be described thus: Degradation of BTK protein in Mino cells (Western blot; DC50, Dmax). As to conditions: Mino mantle cell lymphoma cells, various concentrations, 24 hours.
Description: as §2
For experiment [4], the target named is T1, BTK. As to the kind of experiment: Degradation of BTK protein in Namalwa cells (Western blot; DC50, Dmax). Particulars: for degradation of BTK protein: various concentrations, 24 hours; for DC50: cell line not given.
[5] abbreviates: Namalwa B lymphocyte cells, Western blot.
[6] abbreviates: read-out: DC50 (BTK degradation), concentration giving 50% reduction of BTK expression level.
The mark [7] stands for this setting: read-out: Dmax (BTK degradation).

SMILES strings stand for the structures. Where two headings read alike, the source gives them in different places. Bounds are passed on as bounds.

T1 sequence (Q06187 whole entry): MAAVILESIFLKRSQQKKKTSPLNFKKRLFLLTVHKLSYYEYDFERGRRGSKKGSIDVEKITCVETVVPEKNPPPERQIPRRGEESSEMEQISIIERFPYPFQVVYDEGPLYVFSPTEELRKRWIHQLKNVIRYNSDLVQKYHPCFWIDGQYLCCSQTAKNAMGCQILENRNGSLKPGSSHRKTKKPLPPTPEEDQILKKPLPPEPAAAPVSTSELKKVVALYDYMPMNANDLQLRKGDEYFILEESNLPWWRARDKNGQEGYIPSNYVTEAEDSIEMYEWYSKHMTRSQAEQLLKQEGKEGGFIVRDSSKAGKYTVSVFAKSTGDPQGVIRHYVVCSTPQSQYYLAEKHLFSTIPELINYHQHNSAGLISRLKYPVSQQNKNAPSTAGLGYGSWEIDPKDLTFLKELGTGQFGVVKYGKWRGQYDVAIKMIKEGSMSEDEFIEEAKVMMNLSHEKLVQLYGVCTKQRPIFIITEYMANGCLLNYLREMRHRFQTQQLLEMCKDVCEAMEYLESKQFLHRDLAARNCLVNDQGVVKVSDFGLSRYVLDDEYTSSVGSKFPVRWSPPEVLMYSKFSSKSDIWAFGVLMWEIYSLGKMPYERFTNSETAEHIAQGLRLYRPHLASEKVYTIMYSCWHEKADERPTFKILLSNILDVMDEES

In general, Dmax refers to the greatest extent of degradation seen. A word on the DC50: it is the midpoint of the concentration-degradation curve. In the case of `Nc1ncnc2c1c(-c1ccc(Oc3ccccc3)cc1)nn2[C@@H]1CCCN(CC2CCN(C(=O)N3CCC(N4CCN(c5ccc6c(c5)CN(C5CCC(=O)NC5=O)C6=O)CC4)CC3)CC2)C1` (stereo partly drawn) [Compound 28, 3-(5-(4-(1-(4-(((R)-3-(4-amino-3-(4-phenoxyphenyl)-1H-pyrazolo(3,4-d)pyrimidin-1-yl)piperidin-1-yl)methyl)piperidine-1-carbonyl)piperidin-4-yl)piperazin-1-yl)-1-oxoisoindolin-2-yl)piperidine-2,6-dione], at BTK [1], the Dmax was over 90%. The DC50 on BTK [1] was in the range of 10 to 50 nM. Besides, the IC50 in the experiment with JeKo-1 cells (Homo sapiens) is 1000 to 10000 nM; with Mino cells (Homo sapiens), under 1000 nM. In addition, the “degradation of BTK protein” value on BTK [2], at BTK [3] and at BTK [4] (setting [5]) was “dose-dependent degradation” in each case.

Take `Nc1ncnc2c1c(-c1ccc(Oc3ccccc3)cc1)nn2C1CCN(CC2CN(CC3CCN(c4ccc5c(c4)C(=O)N(C4CCC(=O)NC4=O)C5=O)CC3)C2)CC1` (stereo not drawn) [Compound 439, 5-(4-((3-((4-(4-amino-3-(4-phenoxyphenyl)-1H-pyrazolo(3,4-d)pyrimidin-1-yl)piperidin-1-yl)methyl)azetidin-1-yl)methyl)piperidin-1-yl)-2-(2,6-dioxopiperidin-3-yl)isoindoline-1,3-dione]: the IC50 was 1000 to 10000 nM in the experiment on JeKo-1 cells (Homo sapiens) and under 1000 nM with Mino cells (Homo sapiens, MINO). Also, the “degradation of BTK protein” value on BTK [2], at BTK [3] and on BTK [4] (setting [5]) was “dose-dependent degradation” each time. Further, at BTK [4] (setting [6]), the 50% degradation concentration (DC50) is under 10 nM. For the same compound, the Dmax on BTK [4] (setting [7]) is over 90%.

For the compound `Nc1ncnc2c1c(-c1ccc(Oc3ccccc3)cc1)nn2[C@@H]1CCCN(CC2CCN(C(=O)N3CCC(N4CCN(c5ccc6c(c5)C(=O)N(C5CCC(=O)NC5=O)C6=O)CC4)CC3)CC2)C1` (stereo partly drawn) [Compound 27, 5-(4-(1-(4-(((R)-3-(4-amino-3-(4-phenoxyphenyl)-1H-pyrazolo(3,4-d)pyrimidin-1-yl)piperidin-1-yl)methyl)piperidine-1-carbonyl)piperidin-4-yl)piperazin-1-yl)-2-(2,6-dioxopiperidin-3-yl)isoindoline-1,3-dione], the Dmax at BTK [1] is over 90%. On BTK [1], this compound yielded a DC50 of under 10 nM. The IC50 was under 1000 nM in the experiment with JeKo-1 cells (Homo sapiens) and 1000 to 10000 nM in the experiment on Mino cells (Homo sapiens, MINO). Moreover, the “degradation of BTK protein” value at BTK [2], on BTK [3] and on BTK [4] (setting [5]) was “dose-dependent degradation” throughout. The “degradation of BTK protein at 10^−6 M” value on BTK [4] (Namalwa B lymphocyte cells, 10^−6 M, Western blot) is listed as “degradation”.

On to `Nc1ncnc2c1c(-c1ccc(Oc3ccccc3)cc1)nn2C1CCN(C2CCN(CC3CCN(c4ccc5c(c4)C(=O)N(C4CCC(=O)NC4=O)C5=O)CC3)CC2)CC1` (stereo not drawn) [Compound 213, 5-(4-((4-(4-amino-3-(4-phenoxyphenyl)-1H-pyrazolo(3,4-d)pyrimidin-1-yl)-(1,4′-bipiperidin)-1′-yl)methyl)piperidin-1-yl)-2-(2,6-dioxopiperidin-3-yl)isoindoline-1,3-dione], for which the IC50 is under 1000 nM with JeKo-1 cells (Homo sapiens) and under 1000 nM with Mino cells (Homo sapiens, MINO). Further, the “degradation of BTK protein” value on BTK [2], at BTK [3] and at BTK [4] (setting [5]) was “dose-dependent degradation” throughout. The compound further registered a Dmax on BTK [4] of over 90%. This compound also had a DC50 at BTK [4] (BTK degradation) of under 10 nM.

As for `Nc1ncnc2c1c(-c1ccc(Oc3ccccc3)cc1)nn2C1CCN(C(=O)N2CC(N3CCN(c4ccc5c(c4)CN([C@H]4CCC(=O)NC4=O)C5=O)CC3)C2)CC1` [Compound 484, (S)-3-(5-(4-(1-(4-(4-amino-3-(4-phenoxyphenyl)-1H-pyrazolo[3,4-d]pyrimidin-1-yl)piperidine-1-carbonyl)azetidin-3-yl)piperazin-1-yl)-1-oxoisoindolin-2-yl)piperidine-2,6-dione], the IC50 in the experiment with JeKo-1 cells (Homo sapiens) was under 1000 nM; in the experiment on Mino cells (Homo sapiens, MINO) it was under 1000 nM. The “degradation of BTK protein” value on BTK [3] is given as “dose-dependent degradation”. The DC50 on BTK [4] (setting [6]) was under 10 nM. Moreover, the Dmax on BTK [4] (setting [7]) is over 90%.

At BTK [1], `Nc1ncnc2c1c(-c1ccc(Oc3ccccc3)cc1)nn2[C@@H]1CCCN(C2CCN(C(=O)N3CCC(N4CCN(c5ccc6c(c5)CN(C5CCC(=O)NC5=O)C6=O)CC4)CC3)CC2)C1` (stereo partly drawn) [Compound 162, 3-(5-(4-(1-((R)-3-(4-amino-3-(4-phenoxyphenyl)-1H-pyrazolo(3,4-d)pyrimidin-1-yl)-(1,4′-bipiperidine)-1′-carbonyl)piperidin-4-yl)piperazin-1-yl)-1-oxoisoindolin-2-yl)piperidine-2,6-dione] came in with a Dmax of over 90%. The same compound gave a 50% degradation concentration (DC50) at BTK [1] of under 10 nM. The IC50 in the experiment on JeKo-1 cells (Homo sapiens) and in the experiment with Mino cells (Homo sapiens) was under 1000 nM in each case. Further, the “degradation of BTK protein” value at BTK [2], on BTK [3] and on BTK [4] (setting [5]) was “dose-dependent degradation” each time.

For the compound `Nc1ncnc2c1c(-c1ccc(Oc3ccccc3)cc1)nn2C1CCN(C(=O)N2CC(N3CCN(c4ccc5c(c4)C(=O)N(C4CCC(=O)NC4=O)C5=O)CC3)C2)CC1` (stereo not drawn) [Compound 477, 5-(4-(1-(4-(4-amino-3-(4-phenoxyphenyl)-1H-pyrazolo[3,4-d]pyrimidin-1-yl)piperidine-1-carbonyl)azetidin-3-yl)piperazin-1-yl)-2-(2,6-dioxopiperidin-3-yl)isoindoline-1,3-dione], the IC50 in the experiment on JeKo-1 cells (Homo sapiens) is under 1000 nM; in the experiment with Mino cells (Homo sapiens, MINO), under 1000 nM. For the same compound, the “degradation of BTK protein” value on BTK [3] is “dose-dependent degradation”. Also, on BTK [4] (setting [6]), the 50% degradation concentration (DC50) is under 10 nM. The greatest degradation seen (Dmax) on BTK [4] (setting [7]) is over 90%.

For `Nc1ncnc2c1c(-c1ccc(Oc3ccccc3)cc1)nn2C1CCN(CC2CCN(/C=C/C(=O)CN3CCN(c4ccc5c(c4)CN(C4CCC(=O)NC4=O)C5=O)CC3)CC2)CC1` (stereo not drawn) [Compound 420, (E)-3-(5-(4-(4-(4-((4-(4-amino-3-(4-phenoxyphenyl)-1H-pyrazolo[3,4-d]pyrimidin-1-yl)piperidin-1-yl)methyl)piperidin-1-yl)-2-oxobut-3-en-1-yl)piperazin-1-yl)-1-oxoisoindolin-2-yl)piperidine-2,6-dione], the IC50 with JeKo-1 cells (Homo sapiens) was in the range of 1000 to 10000 nM; in the experiment with Mino cells (Homo sapiens, MINO) it was 1000 to 10000 nM. For the same compound, the “degradation of BTK protein” value on BTK [2], at BTK [3] and on BTK [4] (setting [5]) was “dose-dependent degradation” each time. Besides, the half-maximal degradation concentration (DC50) at BTK [4] (setting [6]) is under 10 nM. Besides, the Dmax at BTK [4] (setting [7]) was over 90%.

With `Nc1ncnc2c1c(-c1ccc(Oc3ccccc3)cc1)nn2C1CCN(CCOCCOCCN2CCC(c3ccc4c(c3)CN(C3CCC(=O)NC3=O)C4=O)CC2)CC1` (stereo not drawn) [Compound 419, 3-(5-(1-(2-(2-(2-(4-(4-amino-3-(4-phenoxyphenyl)-1H-pyrazolo[3,4-d]pyrimidin-1-yl)piperidin-1-yl)ethoxy)ethoxy)ethyl)piperidin-4-yl)-1-oxoisoindolin-2-yl)piperidine-2,6-dione], the IC50 in the experiment with JeKo-1 cells and with Mino cells was 1000 to 10000 nM each time. In addition, the “degradation of BTK protein” value on BTK [2], at BTK [3] and on BTK [4] (setting [5]) was “dose-dependent degradation” in each case. Besides, the 50% degradation concentration (DC50) on BTK [4] (setting [6]) is under 10 nM. In addition, the Dmax on BTK [4] (setting [7]) was over 90%.

Source of the values: US12139492B2 (Endotarget Inc., priority 2021, dated 2024).
